Experimental data: US8952024B2, “Herbicidal pyrimidone derivatives” (E I du Pont de Nemours and Company, priority 2009, dated 2015)

Columns and labels:
Assay in all cases: Test B pre-/postemergence plant response
Type in all cases: in vivo
[1] = tested on: green foxtail (Setaria viridis); settings: for Foxtail, Green plant response rating (0 to 100 scale): 62 g ai/ha, 0 is no effect, 13 to 15 days
In short: (§1)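 Ratings reflect visual comparison with untreated controls 13 to 15 days after application, from 0 (no effect) to 100 (complete control). Application was preemergence to seeded loam/sand soil or postemergence to 1- to 4-leaf plants, with compound in a non-phytotoxic, surfactant-containing solvent.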

[2] = tested on: pigweed (Amaranthus retroflexus); settings: for Pigweed plant response rating (0 to 100 scale): 62 g ai/ha, 0 is no effect, 13 to 15 days
In short: as §1

[3] = tested on: goosegrass (Eleusine indica); settings: for Goosegrass plant response rating (0 to 100 scale): 62 g ai/ha, 0 is no effect, 13 to 15 days
In short: as §1

[4] = tested on: wheat (Triticum aestivum); settings: for Wheat plant response rating (0 to 100 scale): 62 g ai/ha, 0 is no effect, 13 to 15 days
In short: as §1

[5] = tested on: velvetleaf (Abutilon theophrasti); settings: for Velvetleaf plant response rating (0 to 100 scale): 62 g ai/ha, 0 is no effect, 13 to 15 days
In short: as §1

[6] = tested on: yellow nutsedge (Cyperus esculentus); settings: for Nutsedge, Yellow plant response rating (0 to 100 scale): 62 g ai/ha, 0 is no effect, 13 to 15 days
In short: as §1

[7] = tested on: Surinam grass (Brachiaria decumbens); settings: for Surinam Grass plant response rating (0 to 100 scale): 62 g ai/ha, 0 is no effect, 13 to 15 days
In short: as §1

[8] = tested on: downy bromegrass (Bromus tectorum); settings: for Bromegrass, Downy plant response rating (0 to 100 scale): 62 g ai/ha, 0 is no effect, 13 to 15 days
In short: as §1

[9] = tested on: ragweed (common ragweed, Ambrosia elatior); settings: for Ragweed plant response rating (0 to 100 scale): 62 g ai/ha, 0 is no effect, 13 to 15 days
In short: as §1

[10] = tested on: large crabgrass (Digitaria sanguinalis); settings: for Crabgrass, Large plant response rating (0 to 100 scale): 62 g ai/ha, 0 is no effect, 13 to 15 days
In short: as §1

[11] = tested on: woolly cupgrass (Eriochloa villosa); settings: for Cupgrass, Woolly plant response rating (0 to 100 scale): 62 g ai/ha, 0 is no effect, 13 to 15 days
In short: as §1

[12] = tested on: Italian ryegrass (Lolium multiflorum); settings: for Ryegrass, Italian plant response rating (0 to 100 scale): 62 g ai/ha, 0 is no effect, 13 to 15 days
In short: as §1

[13] = tested on: lambsquarters (Chenopodium album); settings: for Lambsquarters plant response rating (0 to 100 scale): 62 g ai/ha, 0 is no effect, 13 to 15 days
In short: as §1

[14] = 31 g ai/ha, postemergence, scale 0 to 100, 0 is no effect, 100 is complete control
[15] = postemergence, 100 is complete control
[16] = Postemergence, 125 g ai/ha, visual rating after 13 to 15 days, scale 0 (no effect) to 100 (complete control)
[17] = Postemergence, 250 g ai/ha, scale 0 to 100 (0 no effect, 100 complete control)

Cc1ccc(-c2ncc(C(=O)C3=C(O)CCCC3=O)c(=O)n2-c2ccccc2)cc1 [Compound 80]
Plant response rating, Foxtail, Green [1, 14]: 90 | Foxtail, Green plant response rating (0 to 100 scale) [1, 15]: 95 | Plant response rating, Foxtail, Green [1, 16]: 95 | Plant response rating, Foxtail, Green [1, 17]: 98 | Plant response rating, Pigweed [2, 14]: 100 | Pigweed plant response rating (0 to 100 scale) [2, 15]: 100 | Plant response rating, Pigweed [2, 16]: 100 | Plant response rating, Pigweed [2, 17]: 100 | Plant response rating, Goosegrass [3, 14]: 70 | Goosegrass plant response rating (0 to 100 scale) [3, 15]: 75 | Plant response rating, Goosegrass [3, 16]: 80 | Plant response rating, Goosegrass [3, 17]: 85 | Plant response rating, Wheat [4, 14]: 5 | Wheat plant response rating (0 to 100 scale) [4, 15]: 10 | Plant response rating, Wheat [4, 16]: 20 | Plant response rating, Wheat [4, 17]: 35 | Plant response rating, Velvetleaf [5, 14]: 85 | Velvetleaf plant response rating (0 to 100 scale) [5, 15]: 100 | Plant response rating, Velvetleaf [5, 16]: 100 | Plant response rating, Velvetleaf [5, 17]: 100 | Plant response rating, Nutsedge, Yellow [6, 14]: 10 | Nutsedge, Yellow plant response rating (0 to 100 scale) [6, 15]: 15 | Plant response rating, Nutsedge, Yellow [6, 16]: 55 | Plant response rating, Nutsedge, Yellow [6, 17]: 75 | Plant response rating, Surinam Grass [7, 14]: 45 | Surinam Grass plant response rating (0 to 100 scale) [7, 15]: 45 | Plant response rating, Surinam Grass [7, 16]: 60 | Plant response rating, Surinam Grass [7, 17]: 65 | Plant response rating, Bromegrass, Downy [8, 14]: 45 | Bromegrass, Downy plant response rating (0 to 100 scale) [8, 15]: 60 | Plant response rating, Bromegrass, Downy [8, 16]: 60 | Plant response rating, Bromegrass, Downy [8, 17]: 80 | Plant response rating, Ragweed [9, 14]: 50 | Ragweed plant response rating (0 to 100 scale) [9, 15]: 60 | Plant response rating, Ragweed [9, 16]: 65 | Plant response rating, Ragweed [9, 17]: 75 | Plant response rating, Crabgrass, Large [10, 14]: 75 | Crabgrass, Large plant response rating (0 to 100 scale) [10, 15]: 80 | Plant response rating, Crabgrass, Large [10, 16]: 90 | Plant response rating, Crabgrass, Large [10, 17]: 95 | Plant response rating, Cupgrass, Woolly [11, 14]: 65 | Cupgrass, Woolly plant response rating (0 to 100 scale) [11, 15]: 70 | Plant response rating, Cupgrass, Woolly [11, 16]: 70 | Plant response rating, Cupgrass, Woolly [11, 17]: 75 | Plant response rating, Ryegrass, Italian [12, 14]: 0 | Ryegrass, Italian plant response rating (0 to 100 scale) [12, 15]: 0 | Plant response rating, Ryegrass, Italian [12, 16]: 5 | Plant response rating, Ryegrass, Italian [12, 17]: 5 | Plant response rating, Lambsquarters [13, 14]: 95 | Lambsquarters plant response rating (0 to 100 scale) [13, 15]: 95 | Plant response rating, Lambsquarters [13, 16]: 98 | Plant response rating, Lambsquarters [13, 17]: 100

Cc1ccccc1-c1ncc(C(=O)C2=C(O)CCCC2=O)c(=O)n1-c1ccccc1 [Compound 82]
Plant response rating, Foxtail, Green [1, 14]: 60 | Foxtail, Green plant response rating (0 to 100 scale) [1, 15]: 60 | Plant response rating, Foxtail, Green [1, 16]: 85 | Plant response rating, Foxtail, Green [1, 17]: 90 | Plant response rating, Pigweed [2, 14]: 75 | Pigweed plant response rating (0 to 100 scale) [2, 15]: 98 | Plant response rating, Pigweed [2, 16]: 100 | Plant response rating, Pigweed [2, 17]: 100 | Plant response rating, Goosegrass [3, 14]: 75 | Goosegrass plant response rating (0 to 100 scale) [3, 15]: 75 | Plant response rating, Goosegrass [3, 16]: 80 | Plant response rating, Goosegrass [3, 17]: 85 | Plant response rating, Wheat [4, 14]: 0 | Wheat plant response rating (0 to 100 scale) [4, 15]: 0 | Plant response rating, Wheat [4, 16]: 0 | Plant response rating, Wheat [4, 17]: 5 | Plant response rating, Velvetleaf [5, 14]: 85 | Velvetleaf plant response rating (0 to 100 scale) [5, 15]: 90 | Plant response rating, Velvetleaf [5, 16]: 90 | Plant response rating, Velvetleaf [5, 17]: 95 | Plant response rating, Nutsedge, Yellow [6, 14]: 10 | Nutsedge, Yellow plant response rating (0 to 100 scale) [6, 15]: 15 | Plant response rating, Nutsedge, Yellow [6, 16]: 45 | Plant response rating, Nutsedge, Yellow [6, 17]: 55 | Plant response rating, Surinam Grass [7, 14]: 65 | Surinam Grass plant response rating (0 to 100 scale) [7, 15]: 65 | Plant response rating, Surinam Grass [7, 16]: 75 | Plant response rating, Surinam Grass [7, 17]: 80 | Plant response rating, Bromegrass, Downy [8, 14]: 0 | Bromegrass, Downy plant response rating (0 to 100 scale) [8, 15]: 0 | Plant response rating, Bromegrass, Downy [8, 16]: 5 | Plant response rating, Bromegrass, Downy [8, 17]: 30 | Plant response rating, Ragweed [9, 14]: 75 | Ragweed plant response rating (0 to 100 scale) [9, 15]: 80 | Plant response rating, Ragweed [9, 16]: 95 | Plant response rating, Ragweed [9, 17]: 95 | Plant response rating, Crabgrass, Large [10, 14]: 70 | Crabgrass, Large plant response rating (0 to 100 scale) [10, 15]: 75 | Plant response rating, Crabgrass, Large [10, 16]: 80 | Plant response rating, Crabgrass, Large [10, 17]: 90 | Plant response rating, Cupgrass, Woolly [11, 14]: 55 | Cupgrass, Woolly plant response rating (0 to 100 scale) [11, 15]: 55 | Plant response rating, Cupgrass, Woolly [11, 16]: 65 | Plant response rating, Cupgrass, Woolly [11, 17]: 75 | Plant response rating, Ryegrass, Italian [12, 14]: 0 | Ryegrass, Italian plant response rating (0 to 100 scale) [12, 15]: 0 | Plant response rating, Ryegrass, Italian [12, 16]: 5 | Plant response rating, Ryegrass, Italian [12, 17]: 10 | Plant response rating, Lambsquarters [13, 14]: 80 | Lambsquarters plant response rating (0 to 100 scale) [13, 15]: 95 | Plant response rating, Lambsquarters [13, 16]: 100 | Plant response rating, Lambsquarters [13, 17]: 100
